Results taken from US20250152602A1, “MODULATION OF AVERSIVE AND SALT TASTES” (California Institute of Technology, priority 2023, published 2025).
No end group written: not given here.

Columns and labels:
[1] = system: dopamine release in the nucleus accumbens (NAc); assay: Dopamine release in the NAc (dLight1.3b fiber photometry) during high-salt consumption; type: in vivo, mice
Protocol: Dopamine measurement: Mice were freely moving in the chamber with gustometer. Bulk fluorescence signals were collected with a fiber photometry setting as described with the light of 405 nm and 490 nm. The ΔF/F was calculated as (raw 490-nm signal−fitted 405-nm signal)/(fitted 405-nm signal). Mice were induced with osmotic thirst 10-15 min, or sodium depletion 24 hr before the access of 500 mM NaCl. For wild-type mice, under PGE2 activation condition, mice were injected PGE2 at a dose of 1 mg per kg BW subcutaneously 1 hr before the shutter open. For Ptger3cre mice, mice were injected with either CNO or vehicle 20 min before the shutter opened. Lick number was recorded simultaneously with the fluorescence signal collection. The first lick bout was identified with the lick rate more than 3.5 and lick number more than 5, with less than 1-sec interval to the subsequent lick. If no lick bout was detectable (observed with osmotic thirst), any first lick event was included into the data. All baseline signals were calculated by averaging signals between 10-20 sec prior to the first lick. Response amplitude (normalized ΔF/F) was calculated by subtracting the baseline ΔF/F from the mean ΔF/F between 0 and 10 sec after the lick initiated.

[2] = system: SFO/OVLT^Ptger3 neurons; assay: Chemogenetic inhibition (AAV-DIO-hM4Di + CNO) of LT^Ptger3 neurons, 30-min consumption assay; type: in vivo, mice
Protocol: Surgery procedures were performed according to methods known in the art. Briefly, ketamine (1 mg/ml) and xylazine (10 mg/ml) in saline were injected intraperitoneally at a dose of 10 ml per kg body weight (BW) for anaesthesia. Ketoprofen was injected subcutaneously at a dose of 5 ml per kg BW. Surgery was performed with a stereotaxic apparatus (Narishige, SR-5M-HT) on a heating pad at 37° C. Virus was delivered with a microprocessor-controlled injection system (World Precision Instruments, Nanolitre 2000) at 100 nl/min. The following coordinates were used: for pre-LC: anterior-posterior (AP), 9,000, medial-lateral (ML), 1,000, ventral-dorsal (VD), 3,800; for SFO: AP, 4,000, ML, 0, VD, 2,500; for OVLT: AP, 2,475, ML, 0, VD, 4,750; for dorsal part of the NAc medial shell: AP, 2,100, ML, 700, VD, 4,000. For optogenetic experiments, virus was delivered unilaterally at a volume of 120-200 nl. Implants were made by gluing a 200-μm fibre bundle (Thorlabs, FT200EMT) to a ceramic ferrule (Thorlabs, CF230-10) with epoxy. The fibre implant was placed 200 μm above the virus injection site. For fiber photometry experiments, virus was delivered at a volume of 150-200 nl (calcium measurement) or 500 nl (dopamine measurement) per region. A 400-μm fiber bundle (Thorlabs, FT400UMT) was used instead. For chemogenetic inhibition experiments, virus was delivered at 180-200 nl per region. For ablation experiments, virus was delivered at 200-250 nl per region. For local knockdown experiments, virus was delivered at 150-200 nl per region. At the end of experiments, all animals were euthanized for histological examination.
For 30-min access assay, mice were presented with 1 bottle for 30 min and consumption was measured.
For chemogenetic experiments, clozapine N-oxide (CNO) was administered intraperitoneally at doses of 10 mg per kg BW for inhibition or 1 mg per kg BW for activation 20 min before the consumption trial started. Pure water instead of saline was used as vehicle to avoid sodium repletion.

[3] = system: SFO^Ptger3 neurons; assay: Fiber photometry calcium recording from SFO^Ptger3 neurons (GCaMP7s); type: in vivo, mice; details: for calcium response of SFO^Ptger3 neurons to control stimuli (normalized ΔF/F): i.p., mannitol 2 M, 10 ml per kg BW, ghrelin 10 μg, LiCl 0.15 M, 15 ml per kg BW
Protocol: Calcium measurement from SFO^Ptger3 neurons: Mice were headfixed to eliminate the interference from movement. Photometry recording was performed using a commercial photometry system (Neurophotometrics, FP3002). Two LED of different wavelength (470 nm and 415 nm) were bandpass filtered and a patch cord (0.48 NA, Doric lenses) was attached to the photometry system via a 20× objective. The sampling rate was fixed at 40 Hz. Data were acquired with Bonsai (Neurophotometrics) by drawing a region of interest and calculating the mean pixel value, and then were exported to MATLAB for further analysis. The isosbestic signal (415 nm) was fit with a biexponential model and was then linearly scaled to the calcium signal (470 nm). The ΔF/F was calculated as (raw 470-nm signal−fitted 415-nm signal)/(fitted 415-nm signal). For all sessions, stimulus time was recorded through a customized TTL button. During PGE2 activation experiment (FIG. 7C), mice were given PGE2 at a dose of 1 mg per kg BW or DMSO in 100 μl PBS subcutaneously. During other internal-state treatments, mice were exposed to the following stimuli via intraperitoneal injection: 2M mannitol (10 ml per kg BW); […] of ghrelin (in 100 μl PBS), and 0.15M LiCl (15 ml per kg BW). All analysis used the average of 5 min prior to the stimulus as a baseline mean. Normalized ΔF/F was calculated by subtracting the baseline ΔF/F from the mean ΔF/F between 100 and 1500 sec after the stimulus.

[4] = system: SFO; assay: Fos immunofluorescence after subcutaneous PGE2 injection; type: in vivo, mice
Protocol: PGE2-induced behavior: PGE2 was injected subcutaneously at a dose of 1 mg per kg BW. Animals had no food or water for 15-90 min before behavioral experiments. For immunohistochemistry, PGE2 was injected at a dose of 3 mg per kg BW and maintained with no food or water for 60 min before euthanasia.
Mice were euthanized with CO2 and perfused with PBS and 4% paraformaldehyde. Extracted mouse brains were fixed overnight at 4° C. in 4% PFA and sectioned coronally to 100-μm slides via vibratome (Leica, VT-1000 S). The sections were blocked (10% donkey serum, 0.2% Triton X-100 in PBS) for 1 hr at room temperature and incubated with primary antibody at 4° C. overnight. The following primary antibodies were used: rabbit anti-FOS (1:500), sheep anti-Foxp2 (1:2,000), chicken anti-GFP (1:3,000), rat anti-mCherry (1:500), and goat anti-nNos (1:500). The sections were washed three times with PBS and incubated with the secondary antibody (1:500; Jackson Immunoresearch) and DAPI ([…]) for 4 hr under room temperature. After three times wash with PBS, the sections were mounted on the glass slide. All slides were imaged with confocal microscope (Leica, TCS SP8) or slide scanner (Olympus, BX61VS).

[5] = system: Ptger3; assay: PGE2-induced behavior: high-salt consumption / aversive taste tolerance (gustometer lick assay); type: in vivo, mice
Protocol: Prostaglandin: PGE2 powder was diluted in DMSO at 50 mg/ml as stock. For behavioral assay, we used the final concentration of 1 mg per kg BW in PBS containing 1.7% DMSO (v/v). The same vehicle with DMSO was used as control.
All assays were performed in a custom gustometer (Dialog Instruments). All animals were at least trained with osmotic thirst and sodium depletion prior to the behavior trials. Animals were trained to drink at least 200 licks for 500 mM NaCl in 30 min under sodium depletion. Generally, two training sessions with sodium depletion are sufficient to achieve this criterion. […] To prevent this, all tastants at lower concentrations were exposed to animals before experiment. For tolerance tests, one-bottle consumption assay was used in order to avoid preference development during the session.

[6] = system: SFO^Ptger3 neurons; assay: Salt tolerance induced by SFO^Ptger3 photostimulation with or without amiloride; type: in vivo, mice
Protocol: (§1) For 5-sec brief access assay, mice were presented with 1 bottle of solution for 30 sec per trial for maximum waiting time before the first lick, and 40 sec between trials. After an initial lick, animals were allowed to drink the solution for additional 5 sec before a shutter closed. To avoid taste conditioning effect, animals were tested with only one solution per day. After testing aversive solutions, bitter and high salt, animals sometimes refused to drink any solution. These animals were retrained with water and low salt until their behavioral level recovers to our criteria stated above.
(§2) For optogenetic activation, 473-nm laser-pulse sequences were delivered via an optic cable (Doric Lenses, MFP—FC-ZF) with pulse generators (World Precision Instruments, SYS-A310 or Quantum composers, Sapphire 9200). The laser intensity was maintained at 10 mW at the tip of the fiber. […] For 5-sec brief access assay, the light stimulation was given at 20 Hz throughout the trial except the paradigm in FIG. 3C.

[7] = system: pre-LC^Pdyn neurons; assay: High-salt licks during pre-LC^Pdyn photostimulation with or without amiloride; type: in vivo, mice
Protocol: as §1, §2

[8] = system: prostaglandin production; assay: NSAIDs-induced loss-of-tolerance (lick number, 30 min); type: in vivo, mice; details: sodium depletion; ibuprofen 1 mg per ml drinking water three days plus aspirin 40 mg per kg BW i.p., given together
Protocol: NSAIDs-induced loss-of-tolerance: NSAIDs were used to suppress PGE2 production. Mice were given water supplemented with ibuprofen (1 mg per ml) for three days. On the second day, mice were injected with furosemide to induce sodium depletion. On the third day, aspirin (40 mg per kg BW) was injected intraperitoneally 1-2 hr prior to the lick access. Lick number was recorded for 30 min.

[9] = system: mice; details: thirst; formalin in dorsal hindpaw
Protocol: Formalin-induced tolerance: Mice were injected with formalin or PBS in the dorsal hindpaw 45-60 min prior to the lick access. Osmotic thirst was induced 10-15 min prior to the lick access. Lick number was recorded for 30 min.

[10] = system: circulating PGE2; details: formalin-induced inflammation
Protocol: Videos were taken for 1 hr following the injection and analyzed for the time mice spent licking the dorsal hindpaw. Mice with more than 30-sec licking paw time in the first 5 min after injection were used for video analysis. Each mouse was subjected to formalin injection twice: in one hind paw under sated conditions, and another under either sodium depleted or photostimulated conditions. To test the effect of optogenetic stimulation, light stimulation was given at 20 Hz with a 1-sec on 3-sec off paradigm for 60 min.
Mice were anaesthetized with isoflurane. Blood was collected via heart puncture into EDTA-coated tubes (BD Microtainer, 365974) and kept on ice. Plasma was then separated by centrifugation at 1,500 g for 20 min. ELISA assays were performed following the protocols of PGE2 ELISA kit (Cayman Chemical, 514531), serotonin ELISA kit (Eagle Bio, SER39-KO1), and progesterone ELISA kit (Cayman Chemical, 582601).

## C[N+]1([O-])CCN(C2=Nc3cc(Cl)ccc3Nc3ccccc32)CC1 [CNO, clozapine N-oxide]
[1]; hM3Dq in SFO^Ptger3 neurons, CNO i.p. 1 mg per kg BW vs vehicle, high-salt ingestion
  dopamine signals in the NAc (dLight1.3b): greatly enhanced
[2]; hypovolemic state, hM4Di in SFO/OVLT, CNO i.p.
  tolerance toward aversive salt (500 mM NaCl): drastically suppressed tolerance
[2]; osmotic thirst, LT^Ptger3 inhibition
  solute intake (water or high salt): no effect
[2]; sodium depletion, LT^Ptger3-inhibited mice
  tolerance of low salt with quinine or KCl: no longer tolerated
[2]; sodium depletion, only SFO^Ptger3 neurons inhibited (hM4Di in SFO)
  tolerance of low salt with KCl or quinine: blunted tolerance
[2]; sodium-depleted state, hM4Di in SFO/OVLT, CNO i.p. 10 mg per kg BW
  tolerance toward aversive salt: drastically suppressed tolerance

## [Cl-].[Li+] [LiCl]
[3]
  calcium response of SFO^Ptger3 neurons to control stimuli (normalized ΔF/F): no activation

## CCCCC[C@H](O)/C=C/[C@H]1[C@H](O)CC(=O)[C@@H]1C/C=C\CCCC(=O)O [PGE2, Prostaglandin E2]
[1]; thirsty mice, subcutaneous PGE2 1 mg per kg BW
  high-salt consumption during dLight recording: increased high-salt consumption
[1]; thirsty mice, subcutaneous PGE2, 500 mM NaCl
  dopamine release in the NAc (dLight1.3b): enhanced dopamine release
[3]; subcutaneous PGE2 1 mg per kg BW vs vehicle
  calcium dynamics of SFO^Ptger3 neurons (normalized ΔF/F): time-locked calcium increases
[4]; peripheral (subcutaneous) PGE2 3 mg per kg BW, Ptger3-dependent
  Fos immunofluorescence signals in the SFO: strong Fos immunofluorescence signals
[4]; subcutaneous PGE2, scramble- and Ptger3-shRNA-injected mice
  Fos signal in the pre-LC: No Fos signal
[5]; Ptger3 KD animals
  PGE2-mediated high-salt tolerance: largely abolished
[5]; Ptger3^Cre/Cre animals
  PGE2-mediated high-salt tolerance: largely abolished
[5]; osmotic thirst, wild-type or Ptger3^Cre/wt, PGE2 s.c. 1 mg per kg BW
  salt tolerance (500 mM NaCl consumption): increased salt tolerance
[5]; sated conditions, PGE2 s.c.
  appetite (high-salt consumption): did not induce any appetite

## N=C(N)NC(=O)c1nc(Cl)c(N)nc1N [amiloride]
[6]
  SFO^Ptger3-mediated salt tolerance: no effect
[7]
  sodium consumption (500 mM NaCl licks) induced by pre-LC^Pdyn photostimulation: no longer induced sodium consumption

## CC(=O)Oc1ccccc1C(=O)O [aspirin]
[8]
  salt tolerance (high salt): significantly reduced salt tolerance

## C=O [formalin]
[9]
  high salt tolerance (500 mM NaCl): partially induced high salt tolerance
  water intake: unaffected
[10]
  circulating PGE2 levels: increased the PGE2 levels

## CC(C)Cc1ccc(C(C)C(=O)O)cc1 (stereo not shown) [ibuprofen]
[8]
  salt tolerance (high salt): significantly reduced salt tolerance

## OC[C@@H](O)[C@@H](O)[C@H](O)[C@H](O)CO [mannitol]
[3]
  calcium response of SFO^Ptger3 neurons to control stimuli (normalized ΔF/F): no activation

## ghrelin (GSSFLSPEHQRVQQRKESKKPPAKLQPR; ends and bridges not checked; UniProt Q9UBU3 24-51, looked up) [control stimulus for hunger]
[3]
  calcium response of SFO^Ptger3 neurons to control stimuli (normalized ΔF/F): no activation
